Results taken from US9174997B2, “4-(4-cyano-2-thioaryl)dihydropyrimidinones and use thereof” (Bayer Intellectual Property GmbH, priority 2007, dated 2015).
pIC50: −log10 of the molar value.

Legend:
[1] = molecular target: human neutrophil elastase (HNE) (Homo sapiens (Human), UniProt P08246); assay: In vitro HNE inhibition assay; assay type: biochemical; conditions: HNE concentration of 80 pM; substrate MeOSuc-Ala-Ala-Pro-Val-AMC; 37° C. for 2 hours
Method: B-1. In Vitro HNE Inhibition Assay
The potency of the compounds of the invention is ascertained in an in vitro inhibition assay. The HNE-mediated amidolytic cleavage of a suitable peptide substrate leads in this connection to an increase in the fluorescent light. The signal intensity of the fluorescent light is directly proportional to the enzyme activity.
Enzyme ([…]; from Serva, Heidelberg) and substrate (20 μM MeOSuc-Ala-Ala-Pro-Val-AMC; from Bachem, Weil am Rhein) are incubated in an assay volume of in total 50 μl of assay buffer (0.1 M HEPES pH 7.4, 0.5 M NaCl, 0.1% w/v BSA, 1% v/v DMSO) in a 384-well microtiter plate in the presence and absence of the test substance at 37° C. for 2 hours. […] The IC50 values are determined by plotting the intensity of the fluorescent light against the active substance concentration.

rat hepatocytes = assay: Hepatocyte assay to determine the metabolic stability; assay type: in vitro ADME; conditions: after incubation with rat hepatocytes
Method: B-6. Hepatocyte Assay to Determine the Metabolic Stability
The metabolic stability of test compounds in the presence of hepatocytes is determined by incubating the compounds with low concentrations (preferably below or around 1 μM) and with low cell counts (preferably 1*10^6 cells/ml) in order to ensure as far as possible linear kinetic conditions in the experiment. Seven samples of the incubation solution are taken in a fixed time pattern for the […] analysis in order to determine the half-life (i.e. the degradation) of the compound in each case. Various clearance parameters (CL) and Fmax values are calculated from this half-life (see below).
The Cl and Fmax values represent a measure of the phase 1 and phase 2 metabolism of the compounds in the hepatocytes. In order to minimize the influence of the organic solvent on the enzymes in the incubation mixtures, this concentration is generally limited to 1% (acetonitrile) or 0.1% (DMSO).
A cell count for hepatocytes in the liver of 1.1*10^8 cells/g of liver is used for calculation for all species and breeds.
The calculated parameters and their meaning are:
Representative values for the compounds according to the invention from this assay after incubation of the compounds with rat hepatocytes are shown in Table B below: […]

Sequence of human neutrophil elastase (HNE) (P08246 30-267): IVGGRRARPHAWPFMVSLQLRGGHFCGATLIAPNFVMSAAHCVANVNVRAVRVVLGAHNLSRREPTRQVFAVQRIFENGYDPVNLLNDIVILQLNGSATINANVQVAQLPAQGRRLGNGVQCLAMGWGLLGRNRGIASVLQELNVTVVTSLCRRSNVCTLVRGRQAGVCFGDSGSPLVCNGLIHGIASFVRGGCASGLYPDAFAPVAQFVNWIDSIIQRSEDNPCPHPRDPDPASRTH

pIC50 [1]: > 9.52
CLblood, calculated blood clearance (well stirred model) (rat hepatocytes): 20 mL/min/kg
Fmax, maximum possible bioavailability after oral administration (well-stirred) (rat hepatocytes): 72%
SMILES: CC1=C(C(=O)OCCO)[C@@H](c2ccc(C#N)cc2S(C)(=O)=O)N(S(C)(=O)=O)C(=O)N1c1cccc(C(F)(F)F)c1 [Example 144, 2-Hydroxyethyl (4S)-4-[4-cyano-2-(methylsulfonyl)phenyl]-6-methyl-3-(methylsulfonyl)-2-oxo-1-[3-(trifluoromethyl)phenyl]-1,2,3,4-tetrahydropyrimidine-5-carboxylate]
